Data published in patent US20250302862A1, “SMALL RNA DRUG FOR INHIBITING ACTIVITY OF CANCER CELLS” (Institute of Basic Medical Sciences Chinese Academy of …, priority 2022, published 2025).

Legend:
H460 cells = assay: Apoptosis detection (Annexin V / PI); format: cell-based, human; conditions: 100 nmol/L, 48 h
Protocol: H460 cells with a cell density of more than 90% in 10 cm^2 dishes were plated in 12-well plates according to the cell growth rate, and transfected after 12 h, and the groups were divided as follows: • blank control group (4 wells): 200 uL of opti-MEM per well • negative control group (NC group) and experimental group (3 wells each): the system in each well was as follows • A. 100 uL of opti-MEM and 2 uL of iMax were mixed well for 5 min • B. 100 uL of opti-MEM and 5 uL of small RNA (final concentration 100 nmol/L) were mixed well • C. solution A and solution B were mixed well and let stand for 15 min, and then was added to each well at a 200 uL system • Note: 100 uL of nuclease-free water was added to 2 nmol of small RNA dry powder for dissolution at a storage concentration of 20 umol/L
The supernatant and cells were collected after 48 h and washed twice with pre-chilled PBS. The 4 tubes of cells in the blank control group were added respectively with: (1) 200 uL of 1× binding buffer; (2) 200 uL of 1× binding buffer and 5 uL of Annexin V stain; (3) 200 uL of 1× binding buffer and 5 uL of PI stain; (4) 200 uL of 1× binding buffer, 5 uL of Annexin V stain and 5 uL of PI stain. 200 uL of 1× binding buffer, 5 uL of Annexin V stain and 5 uL of PI stain were added to each tube of both the NC group and the experimental group. The mixture was mixed well and filtered through 300 mesh filters. The live cell population and the position of quadrant gate were selected according to the blank control group, and then the apoptosis of the NC group and the experimental group was detected. […]

[1] = system: primary lung cancer Kras^LSL-G12Dp53^fl/fl (KP) mouse model; assay: Survival of mice with primary lung cancer; format: in vivo; conditions: 10 nmol sRNA in sphingosine(d18:1) delivery system daily by gavage until death, vs NC group
Text: (§1) The mouse model of primary lung cancer was Kras^LSL-G12Dp53^fl/fl (KP).
Mice were weighed and assigned to the negative control group (NC group) and HQi-sRNA-2 group randomly. The NC group was the negative control, in which a sphingosine(d18:1)-NC-sRNA herbal medicine delivery system was constructed from NC-sRNA. The HQi-sRNA-2 group was the experimental group, in which a sphingosine(d18:1)-HQi-sRNA-2 herbal medicine delivery system was constructed from HQi-sRNA-2 and sphingosine(d18:1).
(§2) The herbal medicine delivery system was constructed by heating and mixing 10 nmol of sRNA, 100 ug of sphingosine(d18:1) and 300 ul of sterile enzyme-free water in a water bath at 90° C. for 15 minutes.
Each mouse with a uniform body weight was dosed by gavage. Each mouse was given 10 nmol of HQi-sRNA-2 mimic daily by gavage until death of the mouse.
The survival time of each mouse was recorded, the survival curve was plotted, and statistical analysis was performed.
(§3) Mice were weighed and assigned to the negative control group (NC group), MDM-sRNA-39 group and MDM-sRNA-163 group randomly. The NC group was the negative control, in which a sphingosine(d18:1)-NC-sRNA herbal medicine delivery system was constructed from NC-sRNA. The MDM-sRNA-39 group was an experimental group, in which a sphingosine(d18:1)-MDM-sRNA-39 herbal medicine delivery system was constructed from MDM-sRNA-39. The MDM-sRNA-163 group was an experimental group, in which a sphingosine(d18:1)-MDM-sRNA-163 herbal medicine delivery system was constructed from MDM-sRNA-163.

[2] = system: primary lung cancer Kras^LSL-G12Dp53^fl/fl (KP) mouse model; assay: Tumor burden of mice with primary lung cancer (HE lung sections); format: in vivo; conditions: 10 nmol daily by gavage for one month, sphingosine(d18:1) delivery system, HE-stained left lung section, vs NC group
Text: as §1
Mice were weighed and assigned to the negative control group (NC group) and HQi-sRNA-2 group randomly. The NC group was the negative control, in which a sphingosine(d18:1)-NC-sRNA herbal medicine delivery system was constructed from NC-sRNA. The HQi-sRNA-2 group was the experimental group, in which a sphingosine(d18:1)-HQi-sRNA-2 herbal medicine delivery system was constructed from HQi-sRNA-2.
as §2
Each mouse with a uniform body weight was dosed by gavage. Each mouse was given 10 nmol of HQi-sRNA-2 mimic daily by gavage for one month.
The lungs of mice were collected to prepare pathological sections. The left lung was collected and sliced at the largest surface for every mouse, and stained with HE. The area of tumor in the whole pathological section was counted, the tumor burden was calculated, and statistical analysis was performed.
as §3

Row | Substance | apoptosis (H460 cells) | survival of mice with primary lung cancer [1] | tumor burden of mice with primary lung cancer [2]
1 | HQi-sRNA-2: small RNA derived from Scutellaria baicalensis, sequence AUGGUUCGAUUCCGGAGAGGG (listed as RNA, chemistry not given here) | promotes | significantly prolonged | significantly reduced
2 | MDM-sRNA-163: small RNA derived from Maytenus hookeri, sequence UGACUCUAGUCCGACUUUGUGAAAUGACU (listed as RNA, chemistry not given here) | promotes | significantly prolonged | significantly reduced
3 | MDM-sRNA-39: small RNA derived from Maytenus hookeri, sequence GGGAUUGUAGUUCAAUUGGUCAGAGCACC (listed as RNA, chemistry not given here) | promotes | significantly prolonged | significantly reduced
